From patent publication US9732075B2, “Benzimidazole-proline derivatives” (IDORSIA PHARMACEUTICALS LTD, priority 2012, dated 2017)

Legend:
human orexin-1 receptor = human orexin-1 receptor (Homo sapiens (Human), UniProt O43613); test: In vitro assay: intracellular calcium measurements (FLIPR), antagonistic activity; format: cell-based; details: CHO cells expressing human orexin-1 receptor, orexin-A agonist, geometric mean, read-out: IC50 Ox1
Experimental: (§1) In Vitro Assay: Intracellular Calcium Measurements:
(§2) Chinese hamster ovary (CHO) cells expressing the human orexin-1 receptor and the human orexin-2 receptor, respectively, are grown in culture medium (Ham F-12 with L-Glutamine) containing 300 μg/ml G418, 100 U/ml penicillin, 100 μg/ml streptomycin and 10% heat inactivated fetal calf serum (FCS). The cells are seeded at 20,000 cells/well into 384-well black clear bottom sterile plates (Greiner). The seeded plates are incubated overnight at 37° C. in 5% CO2.
(§3) Human orexin-A as an agonist is prepared as 1 mM stock solution in MeOH: water (1:1), diluted in HBSS containing 0.1% bovine serum albumin (BSA), NaHCO3: 0.375 g/l and 20 mM HEPES for use in the assay at a final concentration of 3 nM.
(§4) Antagonists are prepared as 10 mM stock solution in DMSO, then diluted in 384-well plates using DMSO followed by a transfer of the dilutions into in HBSS containing 0.1% bovine serum albumin (BSA), NaHCO3: 0.375 g/l and 20 mM HEPES. On the day of the assay, 50 μl of staining buffer (HBSS containing 1% FCS, 20 mM HEPES, NaHCO3: 0.375 g/l, 5 mM probenecid (Sigma) and […] of the fluorescent calcium indicator fluo-4 AM (1 mM stock solution in DMSO, containing 10% pluronic) is added to each well. The 384-well cell-plates are incubated for 50 min at 37° C. in 5% CO2 followed by equilibration at RT for 30 min before measurement.
(§5) Within the Fluorescent Imaging Plate Reader (FLIPR Tetra, Molecular Devices), antagonists are added to the plate in a volume of 10 μl/well, incubated for 120 min and finally 10 μl/well of agonist is added. Fluorescence is measured for each well at 1 second intervals, and the height of each fluorescence peak is compared to the height of the fluorescence peak induced by an approximate EC70 (for example 5 nM) of orexin-A with vehicle in place of antagonist. The IC50 value (the concentration of compound needed to inhibit 50% of the agonistic response) is determined and may be normalized using the obtained IC50 value of a on-plate reference compound. Optimized conditions are achieved by adjustment of pipetting speed and cell splitting regime. The calculated IC50 values may fluctuate depending on the daily cellular assay performance. Fluctuations of this kind are known to those skilled in the art. Average IC50 values from several measurements are given as geometric mean values.

human orexin-2 receptor = human orexin-2 receptor (Homo sapiens (Human), UniProt O43614); test: as above; format: cell-based; details: CHO cells expressing human orexin-2 receptor, orexin-A agonist, geometric mean, read-out: IC50 Ox2
Experimental: as §1, §2, §3, §4, §5

human orexin-2 receptor, sequence (O43614 whole entry): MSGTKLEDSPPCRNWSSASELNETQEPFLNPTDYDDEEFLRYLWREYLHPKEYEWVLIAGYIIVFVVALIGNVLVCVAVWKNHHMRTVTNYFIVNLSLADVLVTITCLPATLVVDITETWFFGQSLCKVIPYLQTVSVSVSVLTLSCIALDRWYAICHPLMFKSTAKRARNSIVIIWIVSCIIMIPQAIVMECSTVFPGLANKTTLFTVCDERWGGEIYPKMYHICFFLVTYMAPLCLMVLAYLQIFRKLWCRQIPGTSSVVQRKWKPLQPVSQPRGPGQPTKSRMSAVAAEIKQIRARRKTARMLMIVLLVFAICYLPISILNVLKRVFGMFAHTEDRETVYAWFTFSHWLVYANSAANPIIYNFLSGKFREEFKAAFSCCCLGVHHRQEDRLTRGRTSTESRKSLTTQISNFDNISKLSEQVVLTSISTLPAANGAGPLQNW
human orexin-1 receptor, sequence (O43613 whole entry): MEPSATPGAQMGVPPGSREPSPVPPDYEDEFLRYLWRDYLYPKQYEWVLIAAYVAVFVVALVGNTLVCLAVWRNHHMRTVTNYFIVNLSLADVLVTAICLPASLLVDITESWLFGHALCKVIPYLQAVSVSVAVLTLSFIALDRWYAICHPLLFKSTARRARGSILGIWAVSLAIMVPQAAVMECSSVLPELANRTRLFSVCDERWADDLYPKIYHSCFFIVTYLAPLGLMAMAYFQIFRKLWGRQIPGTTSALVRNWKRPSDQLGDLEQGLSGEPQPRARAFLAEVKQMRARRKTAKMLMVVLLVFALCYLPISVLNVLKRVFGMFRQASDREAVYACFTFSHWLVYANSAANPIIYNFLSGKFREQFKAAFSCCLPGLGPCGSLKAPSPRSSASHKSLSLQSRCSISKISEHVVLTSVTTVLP

| Structure (SMILES) | IC50 (human orexin-1 receptor) | IC50 (human orexin-2 receptor) |
| --- | --- | --- |
| COc1ccc(-n2nccn2)c(C(=O)N2CCC[C@@]2(C)c2nc3cc(C)c(C)cc3[nH]2)c1F [Ex. 5.55] | 113 nM | 202 nM |
| C=C1C[C@@H](c2nc3ccc(Cl)c(C)c3[nH]2)N(C(=O)c2nc(C)sc2-c2cccc(Br)c2)C1 [Ex. 6.123] | 2 nM | 0.7 nM |
| CO[C@@H]1C[C@@H](c2nc3ccc(Cl)c(C)c3[nH]2)N(C(=O)c2cc(C)c(C)cc2-n2nccn2)C1 [Ex. 3.16] | 24 nM | 2 nM |
| C=C1C[C@@H](c2nc3c(C)cccc3[nH]2)N(C(=O)c2nc(C)sc2-c2cccc(Cl)c2)C1 [Ex. 6.44] | 10 nM | 2 nM |
| Cc1ccc(-c2ccccc2)c(C(=O)N2CC[C@H](C)[C@H]2c2nc3c(C)c(Cl)ccc3[nH]2)c1 [Ex. 4.172] | 2 nM | 457 nM |
| C=C1C[C@@H](c2nc3c(OC)ccc(OC)c3[nH]2)N(C(=O)c2nc(C)sc2-c2ccc(C)c(C)c2)C1 [Ex. 6.48] | 14 nM | 7 nM |
| Cc1ccc(-n2nccn2)c(C(=O)N2CCC[C@@]2(C)c2nc3cc(Cl)ccc3[nH]2)c1 [Ex. 5.11] | 29 nM | 413 nM |
| Cc1c(Cl)ccc2[nH]c([C@]3(C)CCCN3C(=O)c3nc(-c4cccc(Cl)c4)sc3-c3ccc(F)cc3)nc12 [Ex. 5.257] | 13 nM | 329 nM |
| COc1cc2nc([C@@H]3[C@@H](C)CCN3C(=O)c3ccccc3-n3nccn3)[nH]c2cc1OC [Ex. 4.49] | 221 nM | 533 nM |
| COc1cc2nc([C@@H]3[C@@H](C)CCN3C(=O)c3nc(C)sc3-c3cc(F)cc(F)c3)[nH]c2cc1OC [Ex. 4.52] | 19 nM | 1070 nM |
| C=C1C[C@@H](c2nc3cc(Cl)c(C)cc3[nH]2)N(C(=O)c2nc(C)sc2-c2ccc(C)c(C)c2)C1 [Ex. 6.55] | 5 nM | 1 nM |
| COc1cc2nc([C@]3(C)CCCN3C(=O)c3c(F)cccc3-n3nccn3)[nH]c2cc1OC [Ex. 5.66] | 872 nM | 458 nM |
| Cc1cccc(-c2ccccc2C(=O)N2CCC[C@@]2(C)c2nc3c(C)c(C)ccc3[nH]2)c1 [Ex. 5.118] | 25 nM | 35 nM |
| COc1ccc2nc([C@@H]3[C@@H](C)CCN3C(=O)c3nc(C)sc3-c3cccc(Cl)c3)[nH]c2c1 [Ex. 4.26] | 17 nM | 2280 nM |
| C=C1CC(c2nc3c(C)cccc3[nH]2)N(C(=O)c2cc(C)sc2-c2ccc(C)c(C)c2)C1 (stereo not shown) [Ex. 6.79] | 2 nM | 4 nM |
| Cc1ccc(-c2ccccc2C(=O)N2CCC[C@@]2(C)c2nc3cc(C)c(C)cc3[nH]2)cc1 [Ex. 5.107] | 58 nM | 53 nM |
| COc1cc(C(=O)N2C[C@H](OC)CC2(C)c2nc3c(C)c(Cl)ccc3[nH]2)c(-n2nccn2)cc1OC (stereo partly shown) [Ex. 3.52] | 28 nM | 27 nM |
| Cc1ccc(-c2ccc(F)cc2)c(C(=O)N2CCC[C@@]2(C)c2nc3cc(C)c(C)cc3[nH]2)c1 [Ex. 5.96] | 13 nM | 32 nM |
| CO[C@H]1C[C@@H](c2nc3c(C)c(Cl)ccc3[nH]2)N(C(=O)c2nc(C)sc2-c2ccccc2)C1 [Ex. 3.5] | 109 nM | 74 nM |
| C[C@@]1(c2nc3cc(C(F)(F)F)c(Cl)cc3[nH]2)CCCN1C(=O)c1ccccc1-n1nccn1 [Ex. 5.142] | 8 nM | 24 nM |
| CSc1cccc2nc([C@@H]3CCCN3C(=O)c3cnc(C)nc3-c3ccc(Br)c(Cl)c3)[nH]c12 [Ex. 1.90] | 2 nM | 14 nM |
| COc1cc2nc([C@]3(C)CCCN3C(=O)c3nc(C)sc3-c3ccc(F)cc3)[nH]c2cc1OC [Ex. 5.78] | 31 nM | 72 nM |
| Cc1nc(C(=O)N2CCCC2c2nc3cc(C(F)(F)F)c(Cl)cc3[nH]2)c(-c2ccccc2)s1 (stereo not shown) [Ex. 1.137] | 4 nM | 33 nM |
| Cc1nc(C(=O)N2CCCC2c2nc3cc(Br)cc(C)c3[nH]2)c(-c2cccc(Cl)c2)s1 (stereo not shown) [Ex. 1.107] | 28 nM | 58 nM |
| COc1ccccc1-c1sc(C)nc1C(=O)N1CC[C@H](C)[C@H]1c1nc2c(C(F)(F)F)cccc2[nH]1 [Ex. 4.156] | 14 nM | 489 nM |

| Structure (SMILES) | IC50 (human orexin-1 receptor) | IC50 (human orexin-2 receptor) |
| --- | --- | --- |
| COc1ccc(-c2ccccc2C(=O)N2CCC[C@@]2(C)c2nc3cc(C)c(C)cc3[nH]2)cc1 [Ex. 5.102] | 34 nM | 82 nM |
| C=C1C[C@@H](c2nc3cc(OC)ccc3[nH]2)N(C(=O)c2nc(C3CC3)sc2-c2ccc(C)c(F)c2)C1 [Ex. 6.25] | 154 nM | 52 nM |
| COc1cccc(-c2nc(C)ncc2C(=O)N2CCC[C@H]2c2nc3cccc(SC)c3[nH]2)c1 [Ex. 1.86] | 56 nM | 118 nM |
| COc1cccc(-c2ccc(C)cc2C(=O)N2CCC[C@@]2(C)c2nc3cc(C)c(C)cc3[nH]2)c1 [Ex. 5.93] | 15 nM | 19 nM |
| COc1cc2nc([C@@H]3[C@@H](C)CCN3C(=O)c3ccc(C)cc3-n3nccn3)[nH]c2cc1OC [Ex. 4.46] | 14 nM | 51 nM |
| Cc1cc2[nH]c([C@@H]3[C@@H](C)CCN3C(=O)c3c(F)cccc3-c3cccnc3)nc2cc1Cl [Ex. 4.107] | 47 nM | 1760 nM |
| C=C1CC(c2nc3cccc(Cl)c3[nH]2)N(C(=O)c2nc(C3CC3)sc2-c2cccc(C)c2)C1 (racemic) [Ex. 6.99] | 5 nM | 1 nM |
| COc1ccc(-c2ccc(C)cc2)c(C(=O)N2CCC[C@@]2(C)c2nc3ccc(Cl)c(C)c3[nH]2)c1F [Ex. 5.302] | 28 nM | 42 nM |
| CO[C@H]1CN(C(=O)c2ccccc2-n2cccn2)C(C)(c2nc3c(C)c(Cl)ccc3[nH]2)C1 (stereo partly shown) [Ex. 3.54] | 52 nM | 44 nM |
| C[C@@]1(c2nc3cc(C(F)(F)F)ccc3[nH]2)CCCN1C(=O)c1cc(-c2cccnc2)ccc1-c1ccccc1 [Ex. 5.265] | 9 nM | 32 nM |
| CO[C@@H]1C[C@@H](c2nc3ccc(Cl)c(C)c3[nH]2)N(C(=O)c2nc(C)sc2-c2ccc(C)c(C)c2)C1 [Ex. 3.34] | 0.9 nM | 8 nM |
| CCn1c([C@]2(C)CCCN2C(=O)c2cc(C)ccc2-n2nccn2)nc2cc(OC)c(OC)cc21 [Ex. 7.10] | 33 nM | 42 nM |
| CSc1cccc2nc([C@@H]3CCCN3C(=O)c3cncnc3-c3cc(Cl)cc(Cl)c3)[nH]c12 [Ex. 1.89] | 39 nM | 180 nM |
| COc1ccc2nc([C@@H]3CCCN3C(=O)c3cc(Cl)ccc3-n3nccn3)[nH]c2c1 [Ex. 1.157] | 419 nM | 10 nM |
| Cc1cccc(-c2nc(C(=O)N3CCC[C@@]3(C)c3nc4c(C)c(Cl)ccc4[nH]3)c(-c3ccc(F)cc3)s2)c1 [Ex. 5.230] | 21 nM | 530 nM |
| COc1cc2nc([C@@H]3[C@@H](C)CCN3C(=O)c3cc(Cl)ccc3-n3nccn3)[nH]c2cc1OC [Ex. 4.40] | 21 nM | 28 nM |
| CSc1cccc2nc([C@@H]3CCCN3C(=O)c3cc(C#N)ccc3-n3nccn3)[nH]c12 [Ex. 1.167] | 97 nM | 15 nM |
| CO[C@H]1CN(C(=O)c2cc(Cl)ccc2-n2nccn2)C(C)(c2nc3c(C)c(Cl)ccc3[nH]2)C1 (stereo partly shown) [Ex. 3.44] | 3 nM | 6 nM |
| Cc1nc(C(=O)N2CCCC2c2nc3c(C(C)C)cccc3[nH]2)c(-c2cccc(Cl)c2)s1 (stereo not shown) [Ex. 1.116] | 86 nM | 248 nM |
| Cc1cc2[nH]c([C@@H]3[C@@H](C)CCN3C(=O)c3c(F)cccc3-c3ncccn3)nc2cc1Cl [Ex. 4.133] | 25 nM | 359 nM |
| C=C1C[C@@H](c2nc3c(C)cccc3[nH]2)N(C(=O)c2nc(C)sc2-c2ccc(C)c(C)c2)C1 [Ex. 6.53] | 4 nM | 1 nM |
| C=C1CC(c2nc3cc(C)c(C)cc3[nH]2)N(C(=O)c2nc(C3CC3)sc2-c2cccc(C)c2)C1 (stereo not shown) [Ex. 6.90] | 6 nM | 1 nM |
| Cc1nc(C(=O)N2CC[C@H](C)[C@H]2c2nc3cccc(C)c3[nH]2)c(-c2cccc(Cl)c2)s1 [Ex. 4.7] | 2 nM | 603 nM |
| C=C1C[C@@H](c2nc3cc(OC)ccc3[nH]2)N(C(=O)c2nc(C)sc2-c2ccc(F)c(Br)c2)C1 [Ex. 6.24] | 53 nM | 17 nM |
| CSc1ccc2nc([C@@H]3CCCN3C(=O)c3cnc(C)nc3-c3cccc(Cl)c3)[nH]c2c1 [Ex. 1.51] | 66 nM | 21 nM |
